Data taken from patent US9889115B2, “Fitness assay and associated methods” (priority 1998, dated 2018).

How the values were obtained:
Assay type in all cases: cell-based
HIV-1BAL = test: PHA-PBMC assay, p24 Gag protein production; conditions: Human immunodeficiency virus 1; HIV-1BAL, NSI; PHA-PBMC, p24 (Table 3)
HIV-1LAI = test: PHA-PBMC assay, p24 Gag protein production; conditions: Human immunodeficiency virus 1; HIV-1LAI, SI; PHA-PBMC, p24 (Table 3)
[1] = tested on: multidrug-resistant HIV-1 clinical isolate, patient 4; test: PHA-PBMC assay, p24 Gag protein production; conditions: Human immunodeficiency virus 1; Patient/Isolate code 4; PHA-PBMC, p24
Method: (§1) The patient profiles are shown below in Table 2.
(§2) To determine protease inhibitory activity against multidrug resistant HIV, the IC50's were measured against a panel of clinically isolated mutant HIV isolates.
(§3) All drug sensitivities were performed in triplicate. In order to determine whether the HIV isolates were syncitium inducing (SI) or non-syncitium inducing (NSI), an aliquot of viral stock supernatant, containing 100 TCID50, was cultured with 1×10^5 MT-2 cells in a 12-well plate. Cultures were maintained for four weeks and were examined for syncytium formation twice a week.

[2] = tested on: multidrug-resistant HIV-1 clinical isolate, patient 8; test: PHA-PBMC assay, p24 Gag protein production; conditions: Human immunodeficiency virus 1; Patient/Isolate code 8; PHA-PBMC, p24
Method: as §1, §2, §3

[3] = tested on: multidrug-resistant HIV-1 clinical isolate, patient 3; test: PHA-PBMC assay, p24 Gag protein production; conditions: Human immunodeficiency virus 1; Patient/Isolate code 3; PHA-PBMC, p24
Method: as §1, §2, §3

[4] = tested on: multidrug-resistant HIV-1 clinical isolate, patient 7; test: PHA-PBMC assay, p24 Gag protein production; conditions: Human immunodeficiency virus 1; Patient/Isolate code 7; PHA-PBMC, p24
Method: as §1, §2, §3

HIV-1ERS104pre = test: PHA-PBMC assay, p24 Gag protein production; conditions: Human immunodeficiency virus 1; HIV-1ERS104pre, SI; PHA-PBMC, p24
Method: as §1, §2, §3

[5] = tested on: multidrug-resistant HIV-1 clinical isolate, patient 1; test: PHA-PBMC assay, p24 Gag protein production; conditions: Human immunodeficiency virus 1; Patient/Isolate code 1; PHA-PBMC, p24
Method: as §1, §2, §3

[6] = tested on: multidrug-resistant HIV-1 clinical isolate, patient 2; test: PHA-PBMC assay, p24 Gag protein production; conditions: Human immunodeficiency virus 1; Patient/Isolate code 2; PHA-PBMC, p24
Method: as §1, §2, §3

[7] = tested on: multidrug-resistant HIV-1 clinical isolate, patient 6; test: PHA-PBMC assay, p24 Gag protein production; conditions: Human immunodeficiency virus 1; Patient/Isolate code 6; PHA-PBMC, p24
Method: as §1, §2, §3

[8] = tested on: multidrug-resistant HIV-1 clinical isolate, patient 5; test: PHA-PBMC assay, p24 Gag protein production; conditions: Human immunodeficiency virus 1; Patient/Isolate code 5; PHA-PBMC, p24
Method: as §1, §2, §3

HIV = test: influence of human protein binding on antiviral activity
Source text: These failures have been ascribed, but not definitively proven, to be due to excessive binding to human plasma proteins, particularly serum albumin and AAG.

[9] = tested on: multidrug-resistant HIV-1 clinical isolate, patient 32; test: microbe, parasite or virus in culture; conditions: Human immunodeficiency virus 1; Patient Isolate 32
Method: (§4) The mutant multidrug-resistant HIV-1 strains corresponding to each patient, numbered 9-35, were genetically analyzed in terms of the nucleic acid sequences of the protease (PR) and a portion of the reverse transcriptase (RT) genes from which mutations in these enzymes were determined. The mutations in the protease and reverse transcriptase of the multidrug-resistant viruses isolated from each patient are shown below in Table 9b.

[10] = tested on: multidrug-resistant HIV-1 clinical isolate, patient 18; test: microbe, parasite or virus in culture; conditions: Human immunodeficiency virus 1; Patient Isolate 18
Method: as §4

[11] = tested on: multidrug-resistant HIV-1 clinical isolate, patient 15; test: microbe, parasite or virus in culture; conditions: Human immunodeficiency virus 1; Patient Isolate 15
Method: as §4

[12] = tested on: multidrug-resistant HIV-1 clinical isolate, patient 19; test: microbe, parasite or virus in culture; conditions: Human immunodeficiency virus 1; Patient Isolate 19
Method: as §4

[13] = tested on: multidrug-resistant HIV-1 clinical isolate, patient 13; test: microbe, parasite or virus in culture; conditions: Human immunodeficiency virus 1; Patient Isolate 13
Method: as §4

[14] = tested on: multidrug-resistant HIV-1 clinical isolate, patient 9; test: microbe, parasite or virus in culture; conditions: Human immunodeficiency virus 1; Patient Isolate 9
Method: as §4

[15] = tested on: multidrug-resistant HIV-1 clinical isolate, patient 11; test: microbe, parasite or virus in culture; conditions: Human immunodeficiency virus 1; Patient Isolate 11
Method: as §4

[16] = tested on: multidrug-resistant HIV-1 clinical isolate, patient 27; test: microbe, parasite or virus in culture; conditions: Human immunodeficiency virus 1; Patient Isolate 27
Method: as §4

[17] = tested on: multidrug-resistant HIV-1 clinical isolate, patient 29; test: microbe, parasite or virus in culture; conditions: Human immunodeficiency virus 1; Patient Isolate 29
Method: as §4

[18] = tested on: multidrug-resistant HIV-1 clinical isolate, patient 17; test: microbe, parasite or virus in culture; conditions: Human immunodeficiency virus 1; Patient Isolate 17
Method: as §4

[19] = tested on: multidrug-resistant HIV-1 clinical isolate, patient 12; test: microbe, parasite or virus in culture; conditions: Human immunodeficiency virus 1; Patient Isolate 12
Method: as §4

[20] = tested on: multidrug-resistant HIV-1 clinical isolate, patient 21; test: microbe, parasite or virus in culture; conditions: Human immunodeficiency virus 1; Patient Isolate 21
Method: as §4

[21] = tested on: multidrug-resistant HIV-1 clinical isolate, patient 16; test: microbe, parasite or virus in culture; conditions: Human immunodeficiency virus 1; Patient Isolate 16
Method: as §4

[22] = tested on: multidrug-resistant HIV-1 clinical isolate, patient 10; test: microbe, parasite or virus in culture; conditions: Human immunodeficiency virus 1; Patient Isolate 10
Method: as §4

[23] = tested on: multidrug-resistant HIV-1 clinical isolate, patient 28; test: microbe, parasite or virus in culture; conditions: Human immunodeficiency virus 1; Patient Isolate 28
Method: as §4

[24] = tested on: multidrug-resistant HIV-1 clinical isolate, patient 20; test: microbe, parasite or virus in culture; conditions: Human immunodeficiency virus 1; Patient Isolate 20
Method: as §4

[25] = tested on: multidrug-resistant HIV-1 clinical isolate, patient 14; test: microbe, parasite or virus in culture; conditions: Human immunodeficiency virus 1; Patient Isolate 14
Method: as §4

[26] = tested on: multidrug-resistant HIV-1 clinical isolate, patient 33; test: microbe, parasite or virus in culture; conditions: Human immunodeficiency virus 1; Patient Isolate 33
Method: as §4

[27] = tested on: multidrug-resistant HIV-1 clinical isolate, patient 23; test: microbe, parasite or virus in culture; conditions: Human immunodeficiency virus 1; Patient Isolate 23
Method: as §4

[28] = tested on: multidrug-resistant HIV-1 clinical isolate, patient 30; test: microbe, parasite or virus in culture; conditions: Human immunodeficiency virus 1; Patient Isolate 30
Method: as §4

[29] = tested on: multidrug-resistant HIV-1 clinical isolate, patient 35; test: microbe, parasite or virus in culture; conditions: Human immunodeficiency virus 1; Patient Isolate 35
Method: as §4

[30] = tested on: multidrug-resistant HIV-1 clinical isolate, patient 31; test: microbe, parasite or virus in culture; conditions: Human immunodeficiency virus 1; Patient Isolate 31
Method: as §4

[31] = tested on: multidrug-resistant HIV-1 clinical isolate, patient 22; test: IC50 against multidrug-resistant clinical isolates (Table 9a); conditions: Human immunodeficiency virus 1
Method: as §4

[32] = tested on: multidrug-resistant HIV-1 clinical isolate, patient 34; test: as above; conditions: Human immunodeficiency virus 1
Method: as §4

wild-type HIV-1 (WT) = test: IC50 against wild-type HIV-1 (Table 9a); conditions: Human immunodeficiency virus 1; (WT)

## CC(C)CN(C[C@@H](O)[C@H](Cc1ccccc1)NC(=O)O[C@H]1CCOC1)S(=O)(=O)c1ccc(N)cc1 [AMV, Amprenavir]
HIV-1BAL
  IC50: 14 nM
HIV-1LAI
  IC50: 19 nM
[1]
  IC50: 400 nM
[2]
  IC50: 220 nM
[3]
  IC50: 330 nM
[4]
  IC50: 420 nM
HIV-1ERS104pre
  IC50: 21 nM
[5]
  IC50: 290 nM
[6]
  IC50: 240 nM
[7]
  IC50: 110 nM
[8]
  IC50: 280 nM
HIV; (−), no added protein
  fold of IC50 relative to (−): 1 ×
HIV; Alb: human serum albumin (HAS, 300 μM)
  fold of IC50 relative to (−): 1 ×
HIV; Human immunodeficiency virus 1, (−), no added protein
  IC50: 29 nM
HIV; Human immunodeficiency virus 1, Alb: human serum albumin (HAS, 300 μM)
  IC50: 21 nM
HIV; Human immunodeficiency virus 1, human alpha acid glycoprotein (AAG, 10 μM)
  IC50: 180 nM
HIV; human alpha acid glycoprotein (AAG, 10 μM)
  fold of IC50 relative to (−): 6 ×

## CC(C)(C)NC(=O)[C@@H]1C[C@@H]2CCCC[C@@H]2CN1C[C@@H](O)[C@H](Cc1ccccc1)NC(=O)[C@H](CC(N)=O)NC(=O)c1ccc2ccccc2n1 [SAQ, Saquinavir]
[9]
  IC50: > 312 nM
[10]
  IC50: 39 nM
[11]
  IC50: > 312 nM
[12]
  IC50: 55 nM
[13]
  IC50: > 312 nM
[14]
  IC50: > 312 nM
[15]
  IC50: 1 nM
[16]
  IC50: > 312 nM
[17]
  IC50: 50 nM
[18]
  IC50: 107 nM
[19]
  IC50: > 312 nM
[20]
  IC50: 210 nM
[21]
  IC50: > 312 nM
[22]
  IC50: > 312 nM
[23]
  IC50: > 312 nM
[24]
  IC50: 32 nM
[25]
  IC50: 40 nM
[26]
  IC50: 59 nM
[27]
  IC50: 8 nM
[28]
  IC50: 191 nM
[29]
  IC50: 61.6 nM
[30]
  IC50: 74 nM
HIV-1BAL
  IC50: 3.7 nM
[31]
  IC50: 3 nM
[32]
  IC50: 63 nM
HIV-1LAI
  IC50: 5.4 nM
[1]
  IC50: 33 nM
[2]
  IC50: 9 nM
[3]
  IC50: 36 nM
[4]
  IC50: 120 nM
HIV-1ERS104pre
  IC50: 10 nM
[5]
  IC50: 290 nM
[6]
  IC50: 35 nM
[7]
  IC50: 190 nM
[8]
  IC50: 240 nM
wild-type HIV-1 (WT)
  IC50: 7 nM
